Laboratory results reported in patent US9663536B2, “Inhibitors of human immunodeficiency virus replication” (priority 2013, dated 2017).
Like-named read-outs stand apart in the source and are kept apart here.

Legend:
[1] = from C=CCCc1ccccc1Cc1cnc(-c2cc3nc(C)c([C@H](OC(C)(C)C)C(=O)OCC)c(N4CCC(C)(OCC=C)CC4)n3n2)s1, rcm bond, Hoveyda-Grubbs II (7 mol%), DCE, 3.67 mM, 70.0 °C, 2.0 h
[2] = rcm bond, 20-membered ring, Hoveyda-Grubbs II (10 mol%), DCE, 70.0 °C
[3] = system: recombinant NL-Rluc virus; assay: Inhibition of HIV replication (NL-Rluc virus in MT-2 cells, luciferase readout); format: cell-based; settings: Human immunodeficiency virus 1, MT2, 120 h

## CCOC(=O)[C@@H](OC(C)(C)C)c1c(C)nc2cc3nn2c1N1CCC(C)(CC1)OCC=CCCc1ccccc1Cc1cnc-3s1
[1]; 19-membered ring
  ring closure, yield after HPLC: 8.65%
[1]; 20-membered ring
  ring closure, yield after HPLC: 19.7%

## CCOC(=O)[C@@H](OC(C)(C)C)c1c(C)nc2cc3nn2c1N1CCC(C)(CC1)OCC=CCOc1ccccc1Cc1cnc-3s1
[2]; from C=CCOc1ccccc1Cc1cnc(-c2cc3nc(C)c([C@H](OC(C)(C)C)C(=O)OCC)c(N4CCC(C)(OCC=C)CC4)n3n2)s1, 1.64 mM, 2.0 h
  ring closure, isolated yield: 76%

## COC(=O)Cc1c(C)nc2cc3nn2c1N1CCC(C)(CC/C=C/COc2ccccc2Cn2cc-3cn2)CC1
[2]; from C=CCCC1(C)CCN(c2c(CC(=O)OC)c(C)nc3cc(-c4cnn(Cc5ccccc5OCC=C)c4)nn23)CC1, 5.02 mM, 1.0 h
  ring closure, isolated yield: 63%

## COC(=O)[C@@H](OC(C)(C)C)c1c(C)nc2cc3nn2c1N1CCC(C)(CC1)OC/C=C/COc1ccccc1Cc1cnn-3c1
[2]; from C=CCOc1ccccc1Cc1cnn(-c2cc3nc(C)c([C@H](OC(C)(C)C)C(=O)OC)c(N4CCC(C)(OCC=C)CC4)n3n2)c1, 1.2 mM, 3.0 h
  ring closure, isolated yield: 74%

## Cc1nc2cc3nn2c(c1[C@H](OC(C)(C)C)C(=O)O)N1CCC(C)(CC1)OC/C=C/CCOc1ccccc1Cc1cnn-3c1 [Example 31, (2S)-2-(tert-Butoxy)-2-[(24E)-4,28-dimethyl-21,27-dioxa-1,5,7,8,10,11-hexaazahexacyclo[26.2.2.1^6,9.1^10,13.0^2,7.0^15,20]tetratriaconta-2,4,6(34),8,11,13(33),15(20),16,18,24-decaen-3-yl]acetic acid]
[3]
  EC50: 2 nM

## Cc1nc2cc3nn2c(c1[C@H](OC(C)(C)C)C(=O)O)N1CCC(C)(CC1)OC/C=C\CCOc1ccccc1Cc1cnn-3c1 [Example 32, (2S)-2-(tert-butoxy)-2-[(24Z)-4,28-dimethyl-21,27-dioxa-1,5,7,8,10,11-hexaazahexacyclo[26.2.2.1^6,9.1^10,13.0^2,7.0^15,20]tetratriaconta-2,4,6(34),8,11,13(33),15(20),16,18,24-decaen-3-yl]acetic acid]
[3]
  EC50: 6 nM

## Cc1nc2cc3nn2c(c1[C@H](OC(C)(C)C)C(=O)O)N1CCC(C)(CC1)OCCCCCOc1ccccc1Cc1cnn-3c1 [Example 33, (2S)-2-(tert-Butoxy)-2-{4,28-dimethyl-21,27-dioxa-1,5,7,8,10,11-hexaazahexacyclo[26.2.2.1^6,9.1^10,13.0^2,7.1^15,20]tetratriaconta-2,4,6(34),8,11,13 (33), 15 (20), 16,18-nonaen-3-yl}acetic acid]
[3]
  EC50: 2 nM

## Cc1nc2cc3nn2c(c1[C@H](OC(C)(C)C)C(=O)O)N1CCC(C)(CC/C=C/CCOc2ccccc2Cc2cnn-3c2)CC1 [Example 34, (2S)-2-(tert-Butoxy)-2-[(24E)-4,28-dimethyl-21-oxa-1,5,7,8,10,11-hexaazahexacyclo[26.2.2.1^6,9.1^10,13.0^2,7.0^15,20]tetratriaconta-2,4,6(34),8,11,13(33),15(20),16,18,24-decaen-3-yl]acetic acid]
[3]
  EC50: 8 nM

## Cc1nc2cc3nn2c(c1[C@H](OC(C)(C)C)C(=O)O)N1CCC(C)(CC/C=C\CCOc2ccccc2Cc2cnn-3c2)CC1 [Example 35, (2S)-2-(tert-Butoxy)-2-[(24Z)-4,28-dimethyl-21-oxa-1,5,7,8,10,11-hexaazahexacyclo[26.2.2.1^6,9.1^10,13.0^2,7.0^15,20]tetratriaconta-2,4,6(34),8,11,13(33),15(20),16,18,24-decaen-3-yl]acetic acid]
[3]
  EC50: 20 nM

## Cc1nc2cc3nn2c(c1[C@H](OC(C)(C)C)C(=O)O)N1CCC(C)(CCCCCCOc2ccccc2Cc2cnn-3c2)CC1 [Example 36, (2S)-2-(tert-Butoxy)-2-{4,28-dimethyl-21-oxa-1,5,7,8,10,11-hexaazahexacyclo[26.2.2.1^6,9.1^10,13.0^2,7.0^15,20]tetratriaconta-2,4,6(34),8,11,13(33),15(20),16,18-nonaen-3-yl}acetic acid]
[3]
  EC50: 14 nM

## Cc1nc2cc3nn2c(c1[C@H](OC(C)(C)C)C(=O)O)N1CCC(C)(CC/C=C/COc2cccc(c2)Cc2cnn-3c2)CC1 [Example 37]
[3]
  EC50: 3 nM

## Cc1nc2cc3nn2c(c1[C@H](OC(C)(C)C)C(=O)O)N1CCC(C)(CC/C=C\COc2cccc(c2)Cc2cnn-3c2)CC1 [Example 38]
[3]
  EC50: 22 nM

## Cc1nc2cc3nn2c(c1[C@H](OC(C)(C)C)C(=O)O)N1CCC(C)(CCCCCOc2cccc(c2)Cc2cnn-3c2)CC1 [Example 39, (2S)-2-(tert-Butoxy)-2-{4,26-dimethyl-20-oxa-1,5,7,8,10,11-hexaazahexacyclo[24.2.2.1^6,9.1^10,13.1^15,19.0^2,7]tritriaconta-2,4,6(33),8,11,13(32),15(31),16,18-nonaen-3-yl}acetic acid]
[3]
  EC50: 6 nM

## Cc1nc2cc3nn2c(c1[C@H](OC(C)(C)C)C(=O)O)N1CCC(C)(CCCCCOc2ccccc2Cn2cc-3cn2)CC1 [Example 40, (2S)-2-(tert-Butoxy)-2-{4,27-dimethyl-21-oxa-1,5,7,8,12,13-hexaazahexacyclo[25.2.2.1^6,9.1^10,13.0^2,7.0^15,20]tritriaconta-2,4,6(33),8,10(32),11,15(20),16,18-nonaen-3-yl}acetic acid]
[3]
  EC50: 4 nM

## Cc1nc2cc3nn2c(c1[C@H](OC(C)(C)C)C(=O)O)N1CCC(C)(CC/C=C/COc2ccccc2Cn2cc-3cn2)CC1 [Example 41]
[3]
  EC50: 3 nM
